The source of these data is patent US5104869A, “Renin inhibitors” (American Cyanamid Company, priority 1990, dated 1992).

A word on the IC50: it is the midpoint of a concentration-inhibition curve.

For the assay, the target named is T1, human kidney renin (Homo sapiens, UniProt P00797).
T1 construct: Human renin was prepared from human kidney; from tissue; host or cells: human kidney
T1 sequence (P00797 67-406): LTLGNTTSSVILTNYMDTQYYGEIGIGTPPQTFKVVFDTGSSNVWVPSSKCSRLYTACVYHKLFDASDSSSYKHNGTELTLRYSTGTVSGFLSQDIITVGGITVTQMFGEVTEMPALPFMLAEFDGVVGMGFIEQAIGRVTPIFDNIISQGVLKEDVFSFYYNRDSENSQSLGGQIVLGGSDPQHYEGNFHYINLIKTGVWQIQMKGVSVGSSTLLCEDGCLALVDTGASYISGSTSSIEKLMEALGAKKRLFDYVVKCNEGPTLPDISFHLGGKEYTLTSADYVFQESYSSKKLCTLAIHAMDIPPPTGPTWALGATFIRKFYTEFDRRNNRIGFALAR
The assay is described as follows: Radioimmunoassay Screen for Renin Inhibitors (in vitro angiotensin I generation, quantitated by radioimmunoassay). The class given is biochemical. To be noted: purified human plasma angiotensinogen, pH 6.0, one hour at 37° C., read-out: Renin Inhibiton IC50. On the procedure: The in vitro method for the screening of anti-renin compounds involves, first, angiotensin I generation, and second, the quantitation of the angiotensin I produced by radioimmunoassay.
The incubation medium consisted of 20 μl of purified human plasma angiotensinogen (1); 10 μl of human kidney renin (2); 5 μl of phenylmethylsulfonyl fluoride; 10 μl of disodium EDTA (10 mM); 10 μl of antirenin compound (5×10^-3, 5×10^-4, 5×10^-5) in dimethylformamide, or ethanol and a suitable amount of maleate buffer (77 mM, pH 6.0) to make a final volume of 500 μl. The reaction mixture was incubated for one hour at 37° C. and the enzymatic reaction was stopped by placing the tube in ice-cold water. The angiotensin I generated during the incubation was measured by a radioimmunoassay plasma renin activity kit (Clinical Assays, Inc.).
The incubation medium consisted of either 100 μl aliquots of the above reaction mixture or a standard amount of angiotensin I; 1000 μl of phosphate buffer (100 mM, pH 7.6) and 100 μl of (^125 I)angiotensinin a gamma-coat, tube. After three hours of incubation at room temperature, the tubes were decanted, and the radioactivity of each tube was determined in a gamma counter. Duplicate determinations were performed for each incubation. The results were expressed in ng of angiotensin I generated per ml of generation medium per hour of incubation (ng/AI/ml/hr).
(1) The human plasma angiotensinogen derived from the blood of a person receiving oral contraceptive pills was purified by chromatography on a pepstatinaminohexyl-agarose column.
(2) Human renin was prepared from human kidney.
For the compound `CC(C)C[C@H](NC(=O)[C@H](Cc1ccccc1)OC(=O)N1CCOCC1)C(=O)N[C@@H](CC1CCCCC1)[C@@H](O)c1ccco1`, the IC50 came out at 100 nM. Under `Cn1cccc1CCNC(=O)C[C@@H](Cc1cccc2ccccc12)C(=O)N[C@@H](Cc1cnc[nH]1)C(=O)N[C@@H](CC1CCCCC1)[C@@H](O)c1nccs1` stands 340 nM. On to `CC(C)C[C@H](NC(=O)[C@@H](CC(=O)OC(C)(C)C)Cc1cccs1)C(=O)N[C@@H](CC(C)C)[C@@H](O)c1nccs1`, for which the IC50 came to 100000 nM.

Consider `CC(C)C[C@H](NC(=O)[C@@H](CC(=O)NCCCN1CCCC1=O)Cc1cccc2ccccc12)C(=O)N[C@@H](CC(C)C)[C@@H](O)c1nccs1`, for which the IC50 is 74 nM. Under `CC(C)C[C@H](NC(=O)[C@@H](CC(=O)O)Cc1cccc2ccccc12)C(=O)N[C@@H](CC(C)C)[C@@H](O)c1nccs1` stands 550 nM; under `COCCNC(=O)O[C@@H](Cc1ccccc1)C(=O)N[C@@H](CC(C)C)C(=O)N[C@@H](CC1CCCCC1)[C@@H](O)c1ccco1`, 1700 nM. Consider `CC(C)C[C@H](NC(=O)[C@@H](CC(=O)N1CCOCC1)Cc1cccc2ccccc12)C(=O)N[C@@H](CC(C)C)[C@@H](O)c1nccs1`, for which the IC50 was 250 nM. `CC(C)C[C@H](NC(=O)[C@@H](CC(=O)N1CCN(C)CC1)Cc1cccc2ccccc12)C(=O)N[C@@H](CC(C)C)[C@@H](O)c1nccs1`: the concentration for half-maximal inhibition (IC50) was found to be 440 nM.
